Experimental data: the supplement of paper PMC9663587

Assays:
[1] = test system: PDX1206; assay: area over the GR curve, 72 h; higher = more effect;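 further: Dye Drop or Deep Dye Drop imaging of viable cells in 384-well plates (Hoechst nuclei, LIVE/DEAD dye), nine half-log doses, GR normalized to DMSO controls and time-zero plates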
[2] = test system: MCF10A (GM); assay: area over the GR curve, 72 h; higher = more effect;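 further: Dye Drop or Deep Dye Drop imaging of viable cells in 384-well plates (Hoechst nuclei, LIVE/DEAD dye), nine half-log doses, GR normalized to DMSO controls and time-zero plates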
[3] = test system: HCC1954; assay: GRmax, 72 h; higher = less effect;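 further: breast cell lines in 384-well plates, nine doses across a 10^4 range, Dye Drop imaging of viable cells vs DMSO and time-zero plates, GR 0 means no net growth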
[4] = test system: MCF10A; assay: GRmax, 72 h; higher = less effect;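 further: breast cell lines in 384-well plates, nine doses across a 10^4 range, Dye Drop imaging of viable cells vs DMSO and time-zero plates, GR 0 means no net growth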
[5] = test system: CAMA1; assay: GRmax, 72 h; higher = less effect;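 further: breast cell lines in 384-well plates, nine doses across a 10^4 range, Dye Drop imaging of viable cells vs DMSO and time-zero plates, GR 0 means no net growth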
[6] = test system: BT549; assay: GRmax, 72 h; higher = less effect;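 further: breast cell lines in 384-well plates, nine doses across a 10^4 range, Dye Drop imaging of viable cells vs DMSO and time-zero plates, GR 0 means no net growth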
[7] = test system: HCC1419; assay: GRmax, 72 h; higher = less effect
[8] = test system: MDAMB415; assay: GRmax, 72 h; higher = less effect

Compound | area over the GR curve [1] | area over the GR curve [2] | GRmax, 72 h [3] | GRmax, 72 h [4] | GRmax, 72 h [5] | GRmax, 72 h [6] | GRmax, 72 h [7] | GRmax, 72 h [8]
CN(C)C/C=C/C(=O)Nc1ccc(C(=O)Nc2cccc(Nc3ncc(Cl)c(-c4c[nH]c5ccccc45)n3)c2)cc1 [THZ1] (max 1 µM) | 0.506 GR | 0.374 GR | -0.507 GR | -0.525 GR | -0.486 GR | -0.312 GR | -0.386 GR | -0.421 GR
CNc1nc(-c2ccc3c(N)n[nH]c3c2)cc(N2C[C@@H](C(=O)NC3CCCCC3)CC[C@H]2C)n1 (max 10 µM) | 0.327 GR | 0.0279 GR | 0.733 GR | 0.918 GR | 0.716 GR | 0.666 GR | 0.442 GR | 0.0477 GR
CCC(=O)Nc1ccc(C(=O)Nc2ccc(Nc3ncc4c(n3)N(C)c3ccc(C)cc3C(=O)N4C)cc2)cc1 [FMF-03-145-1] | 0.946 GR | 0.376 GR | -0.181 GR | -0.0249 GR | 0.0253 GR | -0.0339 GR | 0.387 GR | 0.0653 GR
O=C1NC(=NCc2cccs2)SC1=Cc1ccc2ncccc2c1 [R0-3306] (max 10 µM) | 0.197 GR | 0.0788 GR | -0.0775 GR | -0.0081 GR | 0.0254 GR | -0.0782 GR | 0.246 GR | 0.914 GR
COc1cc(N2CCN(C)CC2)ccc1Nc1ncc2c(n1)N(C)c1ccccc1C(=O)N2CC(F)(F)F [FMF-03-146-1] | -0.0165 GR | 0.001 GR | 0.808 GR | 0.99 GR | 0.82 GR | 0.839 GR | 0.805 GR | 0.959 GR
CN1CCN(C(=O)c2ccc3cc(CCNc4ncnc5ccc(C#N)cc45)ccc3c2)CC1 [senexin b] (max 10 µM) | 0.37 GR | 0.0206 GR | 0.455 GR | 0.851 GR | 0.229 GR | 0.675 GR | 0.445 GR | 0.609 GR
C[C@@H]1COCCN1c1cc(C2([S@](C)(=N)=O)CC2)nc(-c2cc[nH]c3nccc2-3)n1 [AZD6738] (max 10 µM) | 0.0536 GR | 0.073 GR | 0.15 GR | 0.442 GR | 0.25 GR | -0.099 GR | 0.367 GR | 0.522 GR
COc1ccc2c(c1)[C@]1(C[C@H]1c1ccc3c(/C=C/c4ccc(CN5C[C@@H](C)O[C@@H](C)C5)cc4)n[nH]c3c1)C(=O)N2 | 0.504 GR | 0.507 GR | -0.209 GR | -0.0342 GR | -0.0117 GR | 0.0324 GR | 0.32 GR | 0.157 GR
CCCCOc1c(C(=O)c2c(F)cc(C)cc2F)c[nH]c2nncc1-2 (max 10 µM) | 0.691 GR | 0.423 GR | -0.0431 GR | 0.0637 GR | -0.0904 GR | -0.149 GR | 0.4 GR | 0.24 GR
C=CC(=O)Nc1ccc(C(=O)Nc2[nH]nc3c2CN(C(=O)N[C@H](CN(C)C)c2ccccc2)C3(C)C)cc1 [YKL-5-124] (max 10 µM) | 0.57 GR | 0.982 GR | -0.14 GR | -0.162 GR | -0.604 GR | -0.58 GR | -0.411 GR | -0.0129 GR
CC1(N)CCN(c2cnc(-c3cccc(Cl)c3Cl)c(N)n2)CC1 [SHP099] (max 10 µM) | 0.0699 GR | 0.0203 GR | 0.569 GR | 0.571 GR | 0.779 GR | 0.825 GR | 0.819 GR | 0.75 GR
